Publication PMC6914219 (European journal of pharmacology, 2019)

System: Caco-2 monolayers

lucifer yellow was tested, and the Papp was < 1e+12 ×10⁻⁶ cm/s.
